Results taken from US5925769A, “Acetylenic 1,5-diarylpyrazoles as antiinflammatory agents” (Ortho Pharmaceutical, Corp., priority 1998, dated 1999).

Tests used:
CO [1] = target: T1, CO (Rattus norvegicus, UniProt Q63921); experiment: Procedure II: CO activity in broken RBL-1 cells (homogenate supernatant); assay type: biochemical; settings: RBL-1 broken cell supernatant; read-out: Proc. II CO IC50
T1 construct: the supernatant was saved as the source of enzymes; endogenous in cells; host or cells: RBL-1 (rat basophilic leukemia) cells
T1 sequence (Q63921 27-602): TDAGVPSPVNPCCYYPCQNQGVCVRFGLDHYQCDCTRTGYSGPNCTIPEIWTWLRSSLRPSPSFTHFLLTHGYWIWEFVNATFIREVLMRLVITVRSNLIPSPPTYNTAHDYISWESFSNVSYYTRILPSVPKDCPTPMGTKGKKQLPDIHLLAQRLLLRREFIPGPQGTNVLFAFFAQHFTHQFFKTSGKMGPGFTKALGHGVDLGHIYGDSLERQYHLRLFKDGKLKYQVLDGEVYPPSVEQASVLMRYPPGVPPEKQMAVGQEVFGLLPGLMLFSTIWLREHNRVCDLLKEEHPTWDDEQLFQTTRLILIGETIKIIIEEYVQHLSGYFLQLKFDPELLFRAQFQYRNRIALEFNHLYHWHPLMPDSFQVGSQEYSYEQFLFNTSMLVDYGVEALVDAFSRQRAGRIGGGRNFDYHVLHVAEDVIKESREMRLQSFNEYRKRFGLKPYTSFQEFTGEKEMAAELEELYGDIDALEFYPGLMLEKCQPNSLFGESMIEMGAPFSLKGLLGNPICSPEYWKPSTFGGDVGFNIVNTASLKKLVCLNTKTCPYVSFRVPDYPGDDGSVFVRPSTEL
In short: (§1)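 Supernatant from rat RBL-1 homogenate (9,220×g) was pre-incubated 5 min at 37 °C with 2 mM CaCl2 and compound or 1% DMSO, then with 1-^14C-arachidonic acid for 20 min at 37 °C.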

5-LO [2] = target: T2, 5-LO (Rattus norvegicus, UniProt P12527); experiment: Procedure II: 5-LO activity (5-HETE) in broken RBL-1 cells (homogenate supernatant); assay type: biochemical; settings: RBL-1 broken cell supernatant; read-out: Proc. II 5-LO IC50
T2 construct: the supernatant was saved as the source of enzymes; endogenous in cells; host or cells: RBL-1 (rat basophilic leukemia) cells
T2 sequence (P12527 1-673): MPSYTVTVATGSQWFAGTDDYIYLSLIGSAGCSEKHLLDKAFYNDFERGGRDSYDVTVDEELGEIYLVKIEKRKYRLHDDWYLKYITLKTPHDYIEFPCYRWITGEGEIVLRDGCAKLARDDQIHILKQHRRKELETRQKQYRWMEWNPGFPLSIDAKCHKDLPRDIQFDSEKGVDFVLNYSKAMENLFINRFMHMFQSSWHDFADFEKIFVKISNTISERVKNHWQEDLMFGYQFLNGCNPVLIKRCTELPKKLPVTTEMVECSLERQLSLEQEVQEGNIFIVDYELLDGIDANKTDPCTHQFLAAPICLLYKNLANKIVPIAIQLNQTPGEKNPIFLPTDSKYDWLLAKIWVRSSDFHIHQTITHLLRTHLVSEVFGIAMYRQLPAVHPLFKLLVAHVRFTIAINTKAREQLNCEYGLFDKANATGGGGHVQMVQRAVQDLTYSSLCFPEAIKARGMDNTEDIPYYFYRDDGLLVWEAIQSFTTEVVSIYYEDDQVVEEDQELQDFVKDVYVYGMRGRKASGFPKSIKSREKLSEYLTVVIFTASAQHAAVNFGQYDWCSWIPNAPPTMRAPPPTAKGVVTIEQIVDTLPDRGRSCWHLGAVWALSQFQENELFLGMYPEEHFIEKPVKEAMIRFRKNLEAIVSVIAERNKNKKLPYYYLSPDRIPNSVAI
In short: as §1

CO [3] = target: T1, CO; experiment: Procedure III: CO (PgD2) in intact RBL-1 cells; assay type: cell-based; settings: calcium ionophore A 23187, read-out: Proc. III CO IC50
In short: (§2)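 Intact RBL-1 cells at 1×10^5 cells/mL in HBSS were preincubated with vehicle or drug, pelleted and resuspended, then given 1-^14C-AA. 5-HETE (5-LO) and PgD2 (CO) were separated by TLC after acidification/extraction and quantified by radioimaging; IC50 from regression curve fit.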

5-LO [4] = target: T2, 5-LO; experiment: Procedure III: 5-LO (5-HETE) in intact RBL-1 cells; assay type: cell-based; settings: calcium ionophore A 23187, read-out: Proc. III 5-LO IC50
In short: as §2

- IC50 (CO [1]): 310 nM
- IC50 (5-LO [2]): 70 nM
- IC50 (CO [3]): 12100 nM
- IC50 (5-LO [4]): 4700 nM
Structure (SMILES): COc1ccc(-n2nc(C#CCN(O)C(N)=O)cc2-c2ccc(C)cc2)cc1 [Cpd 1, N-Hydroxy-N-(1(1-(4-methoxyphenyl)-5-(4-methylphenyl)pyrazol-3-yl)-1-propyn-3-yl)urea]
